ChEMBL document CHEMBL5346920, “Development of the "hidden" multi-target-directed ligands by AChE/BuChE for the treatment of Alzheimer's disease” (Eur J Med Chem, 2023)
Activity calls are given as the source filed them. No cut-off for these calls is given here.

Columns and labels:
Homo sapiens = species on record: Homo sapiens; assay: Selectivity index, ratio of IC50 for inhibition of human recombinant MAO-A expressed in baculovirus-infected BTI cells to IC50 for inhibition of human recombinant MAO-B expressed in baculovirus-infected BTI cells
[1] = biological target: T1, Amine oxidase [flavin-containing] B (Homo sapiens, UniProt P27338); assay: Inhibition of human recombinant MAO-B expressed in baculovirus-infected BTI cells using kynuramine as substrate incubated for 30 mins by fluorescence based analysis
T1 sequence (P27338 whole entry): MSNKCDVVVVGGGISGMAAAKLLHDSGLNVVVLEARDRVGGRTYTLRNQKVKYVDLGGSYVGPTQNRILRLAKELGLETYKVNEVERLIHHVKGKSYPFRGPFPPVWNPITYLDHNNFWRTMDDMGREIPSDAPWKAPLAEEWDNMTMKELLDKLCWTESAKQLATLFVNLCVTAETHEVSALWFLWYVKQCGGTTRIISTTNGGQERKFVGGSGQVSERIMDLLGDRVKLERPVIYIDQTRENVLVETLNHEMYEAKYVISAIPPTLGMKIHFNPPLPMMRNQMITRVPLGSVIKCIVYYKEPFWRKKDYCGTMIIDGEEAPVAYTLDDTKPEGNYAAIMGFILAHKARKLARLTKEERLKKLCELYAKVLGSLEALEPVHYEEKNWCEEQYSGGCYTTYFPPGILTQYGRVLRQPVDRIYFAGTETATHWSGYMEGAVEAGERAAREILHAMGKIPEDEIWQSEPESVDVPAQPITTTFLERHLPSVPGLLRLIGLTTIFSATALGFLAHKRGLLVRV

PC-12 [2] = assay: Neuroprotective activity against Amyloid beta(25 to 35)-induced cell injury in rat PC12 cells assessed as increase in cell viability pretreated for 2 hrs followed by incubation with Abeta(25 to 35) for 24 hrs by CCK-8 assay; format: functional, cell-based; conditions: dose 5-20 µM, time 26.0 hrs
BV-2 [3] = assay: Cytotoxicity against mouse BV-2 cells assessed as reduction in cell viability at 10 uM by CCK8 assay; format: toxicity, cell-based; conditions: bv-2, 10 µM
PC-12 [4] = assay: Cytotoxicity against rat PC-12 cells assessed as cell viability at 40 uM by CCK-8 assay; format: toxicity, cell-based; conditions: pc-12, 40 µM
Cholinesterase = Cholinesterase (Equus caballus, UniProt P81908); assay: Inhibition of equine serum BuChE using butyrylthiocholine chloride as substrate by Ellman's method; format: cell-free
BV-2 [5] = assay: Anti-inflammatory activity against LPS-stimulated mouse BV-2 cells assessed as inhibition of LPS-induced NO production incubated for 24 hrs in presence of LPS; format: functional, cell-based; conditions: dose 1-9 µM
BV-2 [6] = assay: Anti-inflammatory activity against LPS-stimulated mouse BV-2 cells assessed as inhibition of LPS-induced IL-6 production incubated for 24 hrs in presence of LPS; format: functional, cell-based; conditions: dose 1-9 µM
BV-2 [7] = assay: Anti-inflammatory activity against LPS-stimulated mouse BV-2 cells assessed as inhibition of LPS-induced IL-1 beta production incubated for 24 hrs in presence of LPS; format: functional, cell-based; conditions: dose 1-9 µM
Acetylcholinesterase = Acetylcholinesterase (Electrophorus electricus, UniProt O42275); assay: Inhibition of electric eel AChE using acetylthiocholine chloride as substrate by Ellman's method
[8] = Selectivity index, ratio of IC50 for inhibition of electric eel AChE to IC50 for inhibition of equine serum BuChE
[9] = biological target: T2, Amine oxidase [flavin-containing] A (Homo sapiens, UniProt P21397); assay: Inhibition of human recombinant MAO-A expressed in baculovirus-infected BTI cells using kynuramine as substrate incubated for 30 mins by fluorescence based analysis
T2 sequence (P21397 whole entry): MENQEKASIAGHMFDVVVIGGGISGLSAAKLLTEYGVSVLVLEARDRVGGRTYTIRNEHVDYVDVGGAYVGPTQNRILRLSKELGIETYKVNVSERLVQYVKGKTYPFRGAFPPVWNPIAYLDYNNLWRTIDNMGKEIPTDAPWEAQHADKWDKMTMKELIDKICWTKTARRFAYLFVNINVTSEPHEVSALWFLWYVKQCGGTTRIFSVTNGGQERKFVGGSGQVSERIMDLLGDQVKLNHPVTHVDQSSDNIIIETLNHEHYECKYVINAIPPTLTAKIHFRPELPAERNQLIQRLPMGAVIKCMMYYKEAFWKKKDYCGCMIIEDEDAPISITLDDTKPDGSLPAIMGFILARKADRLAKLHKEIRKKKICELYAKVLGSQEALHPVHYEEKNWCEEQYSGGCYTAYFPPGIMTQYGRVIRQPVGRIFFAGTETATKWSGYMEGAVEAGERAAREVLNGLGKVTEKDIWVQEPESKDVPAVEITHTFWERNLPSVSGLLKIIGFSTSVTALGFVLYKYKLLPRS

[10] = biological target: T2, Amine oxidase [flavin-containing] A; assay: Inhibition of human recombinant MAO-A expressed in baculovirus-infected BTI cells using kynuramine as substrate at 62.5 uM incubated for 30 mins by fluorescence based analysis; conditions: 0.5 h
[11] = Permeability of the compound at 100 ug/ml incubated for 18 hrs by PAMPA assay; format: ADME; conditions: dose 100 µg/ml, read-out: permeability
[12] = biological target: Acetylcholinesterase (Electrophorus electricus) (UniProt O42275); assay: Reversible inhibition of electric eel AChE assessed as enzyme activity using acetylthiocholine iodide as substrate measured after dilution to 0.1XIC50 for 120 mins by Ellman's method; set-up: scale not given: the % may be the effect or the level left
[13] = biological target: Cholinesterase (Equus caballus) (UniProt P81908); assay: Reversible inhibition of equine serum BuChE assessed as enzyme activity using butyrylthiocholine chloride as substrate measured after dilution to 0.1XIC50 for 240 mins by Ellman's method; format: cell-free; set-up: scale not given: the % may be the effect or the level left
[14] = Cytotoxicity against mouse BV-2 cells assessed as cell viability at 30 uM by CCK8 assay; format: toxicity, cell-based; conditions: BV-2 cells, read-out: Activity
[15] = biological target: Amyloid-beta precursor protein (Homo sapiens) (UniProt P05067); assay: Inhibition of self-induced Amyloid beta (1 to 42) (unknown origin) aggregation at 25 uM incubated for 24 hrs by thioflavin T-based fluorescence analysis
BV-2 [16] = assay: Anti-inflammatory activity against LPS-stimulated mouse BV-2 cells assessed as inhibition of LPS-induced IL-6 production by measuring IL-6 level at 9 uM incubated for 24 hrs in presence of LPS (reference value: 1503.2 pg/ml); format: functional
BV-2 [17] = assay: Anti-inflammatory activity against LPS-stimulated mouse BV-2 cells assessed as inhibition of LPS-induced IL-1 beta production by measuring IL-beta level at 3 uM incubated for 24 hrs in presence of LPS (reference value: 221.3 pg/ml); format: functional
BV-2 [18] = assay: Anti-inflammatory activity against LPS-stimulated mouse BV-2 cells assessed as inhibition of LPS-induced IL-6 production by measuring IL-6 level at 1 uM incubated for 24 hrs in presence of LPS (reference value: 1503.2 pg/ml); format: functional
BV-2 [19] = assay: Anti-inflammatory activity against LPS-stimulated mouse BV-2 cells assessed as inhibition of LPS-induced IL-1 beta production by measuring IL-beta level at 1 uM incubated for 24 hrs in presence of LPS (reference value: 221.3 pg/ml); format: functional
PC-12 [20] = assay: Neuroprotective activity against Amyloid beta(25 to 35)-induced cell injury in rat PC12 cells assessed as cell viability at 20 uM pretreated for 2 hrs followed by incubation with Abeta(25 to 35) for 24 hrs by CCK-8 assay (reference value: 41 to 58.6%); format: functional; conditions: time 26 hrs, read-out: Activity
BV-2 [21] = assay: Anti-inflammatory activity against LPS-stimulated mouse BV-2 cells assessed as inhibition of LPS-induced IL-6 production by measuring IL-6 level at 3 uM incubated for 24 hrs in presence of LPS (reference value: 1503.2 pg/ml); format: functional
PC-12 [22] = assay: Neuroprotective activity against Amyloid beta(25 to 35)-induced cell injury in rat PC12 cells assessed as cell viability at 10 uM pretreated for 2 hrs followed by incubation with Abeta(25 to 35) for 24 hrs by CCK-8 assay (reference value: 41 to 58.6%); format: functional; conditions: time 26 hrs, read-out: Activity
BV-2 [23] = assay: Anti-inflammatory activity against LPS-stimulated mouse BV-2 cells assessed as inhibition of LPS-induced IL-1 beta production by measuring IL-beta level at 9 uM incubated for 24 hrs in presence of LPS (reference value: 221.3 pg/ml); format: functional
PC-12 [24] = assay: Neuroprotective activity against Amyloid beta(25 to 35)-induced cell injury in rat PC12 cells assessed as cell viability at 5 uM pretreated for 2 hrs followed by incubation with Abeta(25 to 35) for 24 hrs by CCK-8 assay (reference value: 41 to 58.6%); format: functional; conditions: time 26 hrs, read-out: Activity
[25] = Metal chelating activity assessed as compound-Cu2+ complex formation by measuring small fiber aggregates incubated for 24 hrs by transmission electron microscopy
[26] = Metal chelating activity assessed as compound-Cu2+ complex formation by measuring inhibition of Cu2+-induced amyloid beta (1 to 42) aggregation at 25 uM by thioflavin T-based fluorescence analysis

Chain of Amyloid-beta precursor protein (Homo sapiens) (P05067 whole entry): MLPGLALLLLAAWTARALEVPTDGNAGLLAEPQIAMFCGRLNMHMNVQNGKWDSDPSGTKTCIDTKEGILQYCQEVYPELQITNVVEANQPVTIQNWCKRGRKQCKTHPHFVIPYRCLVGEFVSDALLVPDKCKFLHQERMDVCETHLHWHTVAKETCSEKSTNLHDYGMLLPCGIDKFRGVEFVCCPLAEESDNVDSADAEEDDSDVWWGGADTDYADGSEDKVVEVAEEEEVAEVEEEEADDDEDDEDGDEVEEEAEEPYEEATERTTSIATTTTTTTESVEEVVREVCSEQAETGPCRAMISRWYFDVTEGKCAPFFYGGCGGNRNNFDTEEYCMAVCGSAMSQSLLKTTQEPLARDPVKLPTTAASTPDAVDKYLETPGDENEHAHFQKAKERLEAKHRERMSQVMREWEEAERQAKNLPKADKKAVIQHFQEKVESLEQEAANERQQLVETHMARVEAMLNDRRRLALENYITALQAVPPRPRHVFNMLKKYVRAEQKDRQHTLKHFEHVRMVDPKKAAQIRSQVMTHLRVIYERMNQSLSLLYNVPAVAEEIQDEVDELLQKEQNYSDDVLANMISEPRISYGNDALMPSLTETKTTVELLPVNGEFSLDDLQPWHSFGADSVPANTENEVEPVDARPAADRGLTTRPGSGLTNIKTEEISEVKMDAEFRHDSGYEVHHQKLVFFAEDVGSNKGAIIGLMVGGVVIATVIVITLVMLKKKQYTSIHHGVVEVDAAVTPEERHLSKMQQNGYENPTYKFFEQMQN
Chain of Acetylcholinesterase (O42275 whole entry): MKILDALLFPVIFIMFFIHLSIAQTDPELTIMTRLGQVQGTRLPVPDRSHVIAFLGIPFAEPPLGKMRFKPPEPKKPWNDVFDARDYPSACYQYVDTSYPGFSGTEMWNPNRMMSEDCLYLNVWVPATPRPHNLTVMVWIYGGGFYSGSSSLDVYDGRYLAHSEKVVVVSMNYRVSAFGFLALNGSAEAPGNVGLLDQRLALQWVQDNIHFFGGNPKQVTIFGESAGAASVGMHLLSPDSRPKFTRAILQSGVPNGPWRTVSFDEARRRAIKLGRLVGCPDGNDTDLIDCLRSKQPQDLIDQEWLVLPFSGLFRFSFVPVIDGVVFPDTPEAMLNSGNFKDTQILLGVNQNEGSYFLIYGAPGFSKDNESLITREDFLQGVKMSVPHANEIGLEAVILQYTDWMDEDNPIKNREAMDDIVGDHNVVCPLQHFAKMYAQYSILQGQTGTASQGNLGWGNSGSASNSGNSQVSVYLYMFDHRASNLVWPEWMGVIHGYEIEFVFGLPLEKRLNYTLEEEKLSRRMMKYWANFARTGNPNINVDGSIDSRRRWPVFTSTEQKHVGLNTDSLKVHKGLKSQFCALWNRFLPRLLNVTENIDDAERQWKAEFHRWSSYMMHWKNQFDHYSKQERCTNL
Chain of Cholinesterase (P81908 whole entry): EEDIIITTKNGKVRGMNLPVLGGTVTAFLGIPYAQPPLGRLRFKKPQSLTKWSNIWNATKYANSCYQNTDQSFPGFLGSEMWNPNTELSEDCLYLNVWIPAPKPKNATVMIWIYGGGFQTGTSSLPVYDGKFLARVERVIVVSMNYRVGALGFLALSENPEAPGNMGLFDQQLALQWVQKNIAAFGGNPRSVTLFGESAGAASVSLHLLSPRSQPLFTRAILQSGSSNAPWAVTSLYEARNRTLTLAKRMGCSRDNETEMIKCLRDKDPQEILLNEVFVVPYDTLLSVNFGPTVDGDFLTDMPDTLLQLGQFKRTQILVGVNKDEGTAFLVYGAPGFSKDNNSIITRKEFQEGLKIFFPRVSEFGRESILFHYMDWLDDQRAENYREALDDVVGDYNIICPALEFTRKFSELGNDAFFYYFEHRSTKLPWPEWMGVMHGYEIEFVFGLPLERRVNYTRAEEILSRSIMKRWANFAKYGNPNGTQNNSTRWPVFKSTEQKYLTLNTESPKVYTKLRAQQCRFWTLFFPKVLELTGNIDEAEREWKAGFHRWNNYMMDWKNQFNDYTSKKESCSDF
Chain of Acetylcholinesterase (Electrophorus electricus) (O42275 24-633 limits assumed): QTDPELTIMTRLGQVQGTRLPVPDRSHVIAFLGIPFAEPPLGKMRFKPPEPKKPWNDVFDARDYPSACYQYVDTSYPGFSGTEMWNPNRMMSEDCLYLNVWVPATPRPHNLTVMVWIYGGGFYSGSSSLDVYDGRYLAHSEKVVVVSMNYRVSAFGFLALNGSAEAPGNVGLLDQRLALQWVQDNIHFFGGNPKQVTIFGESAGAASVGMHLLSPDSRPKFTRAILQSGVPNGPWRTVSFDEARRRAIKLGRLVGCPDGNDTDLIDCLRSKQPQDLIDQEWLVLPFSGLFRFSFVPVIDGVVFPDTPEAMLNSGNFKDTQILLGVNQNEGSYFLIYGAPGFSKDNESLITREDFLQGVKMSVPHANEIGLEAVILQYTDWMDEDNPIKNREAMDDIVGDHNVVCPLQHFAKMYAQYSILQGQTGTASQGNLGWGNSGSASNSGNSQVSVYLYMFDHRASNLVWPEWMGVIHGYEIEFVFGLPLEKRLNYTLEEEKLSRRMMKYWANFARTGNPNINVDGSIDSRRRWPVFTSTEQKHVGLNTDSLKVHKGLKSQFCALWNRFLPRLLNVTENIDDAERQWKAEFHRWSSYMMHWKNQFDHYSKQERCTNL
Chain of Cholinesterase (Equus caballus) (P81908 whole entry): as the sequence (P81908 whole entry) above

CN(C)C(=O)Oc1ccccc1C(=O)/C=C/c1ccc(F)cc1
Ratio IC50 (Homo sapiens): 11.7
IC50 [1]: 2.7 µM
Activity (PC-12 [2]): Dose-Dependent Effect
Activity (BV-2 [3]): Non-Toxic
Activity (PC-12 [4]): Non-Toxic
IC50 (Cholinesterase): 6.3 µM
Activity (BV-2 [5]): Dose-Dependent Effect
Activity (BV-2 [6]): Dose-Dependent Effect
Activity (BV-2 [7]): Dose-Dependent Effect
IC50 (Acetylcholinesterase): 8.7 µM
Ratio IC50 [8]: 1.4
IC50 [9]: 31.5 µM

COc1ccccc1/C=C/C(=O)c1ccccc1O
IC50 [1]: 5.9 µM
inhibition at 62.5 µM [10]: < 15%

CCn1cc(C(=O)O)c(=O)c2cc(F)c(N3CCNCC3)cc21 [NORFLOXACIN]
Papp at 18 h, 100 ug/ml [11]: 0.21 ×10⁻⁶ cm/s

O=C(/C=C/c1cccc(O)c1)c1ccccc1O
Ratio IC50 (Homo sapiens): 29.9
IC50 [1]: 1.7 µM
IC50 [9]: 50.9 µM

COc1ccc2cc(/C=C/C(=O)c3ccccc3O)ccc2c1
IC50 [1]: 78.4 µM
inhibition at 62.5 µM [10]: < 15%

COc1cccc(/C=C/C(=O)c2ccccc2O)c1
Ratio IC50 (Homo sapiens): 10.5
IC50 [1]: 3.4 µM
IC50 [9]: 35.7 µM

O=C(/C=C/c1ccc2ccccc2c1Br)c1ccccc1O
IC50 [1]: 2.8 µM
inhibition at 62.5 µM [10]: < 15%

O=C(/C=C/c1ccc(Cl)cc1)c1ccccc1O
Ratio IC50 (Homo sapiens): 7.7
IC50 [1]: 10.3 µM
IC50 [9]: 78.8 µM

O=C(/C=C/c1c(F)cccc1Br)c1ccccc1O
IC50 [1]: 4.7 µM
inhibition at 62.5 µM [10]: < 15%

CCN(C)C(=O)Oc1cccc([C@H](C)N(C)C)c1
Activity [12]: 94.7%
Activity [13]: 81.2%

O=C(/C=C/c1ccccc1F)c1ccccc1O
IC50 [1]: 12.6 µM
inhibition at 62.5 µM [10]: < 15%

COc1ccc(/C=C/C(=O)c2ccccc2O)cc1
viability at 30 µM [14]: 78.9%
Ratio IC50 (Homo sapiens): 40.9
inhibition [15]: 61.1%
IC50 [1]: 1.3 µM
Activity (PC-12 [2]): Dose-Dependent Effect
Activity (BV-2 [3]): Non-Toxic
Activity (PC-12 [4]): Non-Toxic
Activity (BV-2 [5]): Dose-Dependent Effect
Activity (BV-2 [6]): Dose-Dependent Effect
Activity (BV-2 [7]): Dose-Dependent Effect
IC50 [9]: 53.2 µM

O=C(/C=C/c1c(Br)cccc1Br)c1ccccc1O
IC50 [1]: 60.3 µM
inhibition at 62.5 µM [10]: < 15%

CCN(CC)C(=O)Oc1ccccc1C(=O)/C=C/c1ccc(F)cc1
Ratio IC50 (Homo sapiens): 24.9
IC50 [1]: 2.1 µM
Activity (PC-12 [2]): Dose-Dependent Effect
Activity (BV-2 [3]): Non-Toxic
Activity (PC-12 [4]): Non-Toxic
IC50 (Cholinesterase): 18.9 µM
Activity (BV-2 [5]): Dose-Dependent Effect
Activity (BV-2 [6]): Dose-Dependent Effect
Activity (BV-2 [7]): Dose-Dependent Effect
IC50 (Acetylcholinesterase): 11.2 µM
Ratio IC50 [8]: 0.59
IC50 [9]: 52.3 µM

O=C(/C=C/c1cc2ccccc2c2ccccc12)c1ccccc1O
IC50 [1]: 76.8 µM
inhibition at 62.5 µM [10]: < 15%

O=C(/C=C/c1ccc(Br)cc1OC(F)(F)F)c1ccccc1O
Ratio IC50 (Homo sapiens): 22.9
IC50 [1]: 2.6 µM
IC50 [9]: 59.3 µM

O=C(/C=C/c1ccc(O)cc1)c1ccccc1O
viability at 30 µM [14]: 71.5%
Activity (BV-2 [16]): 337.5 pg/mL
Ratio IC50 (Homo sapiens): 82.6
inhibition [15]: 80.7%
IC50 [1]: 0.8 µM
Activity (BV-2 [17]): 77.6 pg/mL
Activity (BV-2 [3]): Non-Toxic
Activity (PC-12 [4]): Non-Toxic
Activity (BV-2 [18]): 763.2 pg/mL
Activity (BV-2 [5]): Dose-Dependent Effect
Activity (BV-2 [19]): 147.6 pg/mL
viability at 20 µM (PC-12 [20]): 94.6%
Activity (BV-2 [21]): 489.3 pg/mL
viability at 10 µM (PC-12 [22]): 91%
Activity (BV-2 [23]): 50.9 pg/mL
viability at 5 µM (PC-12 [24]): 88.9%
IC50 [9]: 66.1 µM

COc1ccc(Br)cc1/C=C/C(=O)c1ccccc1O
IC50 [1]: 27.5 µM
inhibition at 62.5 µM [10]: < 15%

COc1cc(/C=C/C(=O)CC(=O)/C=C/c2ccc(O)c(OC)c2)ccc1O [CURCUMIN]
Activity [25]: Active
Activity (PC-12 [4]): Non-Toxic
viability at 20 µM (PC-12 [20]): 85.5%
inhibition [26]: 53.5%
viability at 10 µM (PC-12 [22]): 76.3%
viability at 5 µM (PC-12 [24]): 62.5%
